The values that follow come from ChEMBL document CHEMBL1201862, “PubChem BioAssay data set” (2004).

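Protocol summary: plate cells (96-well), add compound at 5 concentrations, incubate 48 h, interpolate endpoints linearly. GI50 marks 50% less growth.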 Calls of active or inactive are those of the source. No stated cut-off is given here; in the data, active = GI50 up to about 1.1 µM and inactive = higher.

What all share (assay): NCI anticancer screen, dose series, 48 h
In assay [1] the test system is A549.
Assay [2] has as its system DMS-114.
For assay [3], the system named is EKVX.
Assay [4] has as its system HL-60.
Assay [5] concerns IGROV-1.
Assay [6] deals with KM12.
In assay [7] the test system is NCI-H226.
In assay [8] the test system is OVCAR-8.
In assay [9] the test system is SK-MEL-5.
The subject of assay [10] is SN12C.
Assay [11] concerns SNB-19.
Assay [12] concerns SW-620.
Assay [13] deals with TK-10.
Assay [14] has as its system UO-31.
Assay [15] concerns CAKI-1.
In assay [16] the test system is SR.
Assay [17] deals with BT-549.
Assay [18] has as its system MCF7.
The subject of assay [19] is MDA-MB-231.
For assay [20], the system named is T47D.

For the molecule `CCSC(SCC)c1cc2c(cc1Br)OCO2`, the GI50 in assay [1] was 28.6 µM (inactive); in [2] it was 15.5 µM (inactive); in assay [3] it was 31.8 µM (inactive); in [4], 10.1 µM (inactive); in assay [5], 55.8 µM (inactive); in assay [6] it was 35.6 µM (inactive). For the same molecule, the GI50 is 24.2 µM (inactive) in assay [7]; 31.3 µM (inactive) in assay [8]; 17.5 µM (inactive) in [9]; 30.5 µM (inactive) in [10]; 58.9 µM (inactive) in assay [11]; 10.6 µM (inactive) in [12]. The values for the GI50 in assay [13] and in assay [14] were 44.7 µM (inactive) and 20.8 µM (inactive), respectively.
In the case of `CC(=O)OCC1OC(n2c(-c3ccc(N)cc3)cc(-c3ccco3)c(C#N)c2=O)C(OC(C)=O)C(OC(C)=O)C1OC(C)=O` (stereo not given), the GI50 was 15.6 µM (inactive) in assay [1]; > 50 µM (inactive) in [15]; 2.64 µM (inactive) in [2]; > 50 µM (inactive) in assay [3]; 45 µM (inactive) in assay [5]; 7.29 µM (inactive) in assay [6]. Besides, the GI50 is 5.87 µM (inactive) in [8]; 8.93 µM (inactive) in assay [9]; > 50 µM (inactive) in assay [10]; > 50 µM (inactive) in assay [11]; > 50 µM (inactive) in [16]; > 50 µM (inactive) in assay [12]. The GI50 in assay [13] and in assay [14] was > 50 µM (inactive) throughout.
With `COS(=O)c1cc(Cl)cc(Cl)c1OC(=O)CSSCC(=O)Oc1c(Cl)cc(Cl)cc1S(=O)OC` (stereo not given), the GI50 is 13.2 µM (inactive) in assay [1]; 26.6 µM (inactive) in assay [15]; 15.8 µM (inactive) in assay [2]; 20 µM (inactive) in assay [3]; 22.4 µM (inactive) in assay [4]; 19.4 µM (inactive) in assay [5]. The GI50 in [6] was 14.8 µM (inactive); in assay [8], 20.5 µM (inactive); in [9], 17.4 µM (inactive); in assay [10] it was 10.2 µM (inactive); in assay [11], 5.24 µM (inactive); in assay [12], 28.4 µM (inactive). Besides, the GI50 in [13] is 34.5 µM (inactive); in assay [14] it was 13.2 µM (inactive).
As to `CCC1CN2CCc3cc(OC)c(OC)cc3C2CC1CC1c2cc(OC)c(OC)cc2CCN1C(=O)C1CCCN1C(=O)OCc1ccccc1` (stereo not given), the GI50 was 18.9 µM (inactive) in assay [1]; 20.3 µM (inactive) in [15]; 13.9 µM (inactive) in [2]; 22.7 µM (inactive) in [3]; 13.1 µM (inactive) in [4]; 15.9 µM (inactive) in [5]. In addition, the GI50 in assay [6] was 16.3 µM (inactive); in assay [7], 16.1 µM (inactive); in [8], 17.1 µM (inactive); in assay [9], 15.5 µM (inactive); in assay [10] it was 16.3 µM (inactive); in [11], 24.3 µM (inactive). The values for the GI50 in [12], in assay [13] and in [14] were 14.8 µM (inactive), 19.5 µM (inactive) and 12.7 µM (inactive), respectively.
For the molecule `CC(=O)Nc1ccccc1-c1nc2ccccc2nc1-c1ccccc1`, the GI50 in assay [1], in assay [15], in [2], in [3], in assay [4] and in [5] was > 100 µM (inactive) in each case. Further, the GI50 in [6], in assay [8], in [10], in [11], in assay [16] and in [12] was > 100 µM (inactive) each time. Further, the GI50 in [14] is 54.7 µM (inactive).
For the molecule `O=c1c2ccccc2sc2c(CO)ccc(NCCN3CCCCC3)c12`, the GI50 in assay [1] was 3.46 µM (inactive); in assay [17], 10.8 µM (inactive); in [15] it was 3.45 µM (inactive); in [3], 4.66 µM (inactive); in assay [4], 3.08 µM (inactive); in [5] it was 3.93 µM (inactive). The GI50 in assay [6] was 3.55 µM (inactive); in assay [18] it was 2.99 µM (inactive); in assay [19], 5.48 µM (inactive); in assay [7], 2.85 µM (inactive); in assay [8], 3.56 µM (inactive); in assay [9] it was 1.69 µM (inactive). The GI50 in [10] is 3.27 µM (inactive); in assay [11], 4.73 µM (inactive); in assay [16] it was 0.497 µM (active); in assay [12], 2.25 µM (inactive); in assay [20], 5.25 µM (inactive); in assay [13] it was 3.48 µM (inactive). For the same molecule, in [14], the GI50 was 1.88 µM (inactive).
On to `N#CC(/C(=N\NC(=O)c1ccncc1)C(=O)Nc1ccc([N+](=O)[O-])cc1[N+](=O)[O-])c1nc(-c2ccc(Br)cc2)cs1` (stereo not given), for which the GI50 in assay [1], in assay [15], in assay [2], in [3], in [4] and in [5] was > 100 µM (inactive) each time. For the same molecule, the GI50 in assay [6], in assay [8], in assay [9], in [11], in [12] and in assay [13] was > 100 µM (inactive) in each case. Further, the GI50 in assay [14] is > 100 µM (inactive).
Take `CC(C(=O)N1C(=O)N(C(=O)[C@H](C)C(O)c2ccccc2)[C@H](c2ccccc2)[C@H]1c1ccccc1)[C@@H](O)c1ccccc1` (stereo not given in full): the GI50 was 33 µM (inactive) in [1]; 6.04 µM (inactive) in assay [17]; 20 µM (inactive) in assay [15]; 21.1 µM (inactive) in assay [3]; 22 µM (inactive) in assay [4]; 12 µM (inactive) in assay [5]. Moreover, the GI50 in [6] is 31.2 µM (inactive); in [18], 26.6 µM (inactive); in [19] it was 19.5 µM (inactive); in [7] it was 27 µM (inactive); in [8], 25.1 µM (inactive); in [9], 14.9 µM (inactive). Besides, the GI50 is 38.8 µM (inactive) in assay [10]; 37.2 µM (inactive) in [11]; 0.118 µM (active) in assay [16]; 45.2 µM (inactive) in assay [12]; 68.9 µM (inactive) in assay [20]; 41.2 µM (inactive) in assay [13]. Further, in [14], the GI50 is 31.5 µM (inactive).
Turning to `COc1ccc2c(c1OC(C)=O)C1=CC(=O)CCC13CCNC3C2` (stereo not given), the GI50 in [1], in [17], in assay [15], in assay [3], in assay [4] and in assay [5] was > 100 µM (inactive) throughout. For the same molecule, the GI50 in [6], in assay [18], in [19], in assay [7], in [8] and in assay [9] was > 100 µM (inactive) each time. The GI50 in assay [10], in assay [11], in [16], in [12], in assay [20] and in [13] was > 100 µM (inactive) each time. Also, the GI50 in assay [14] is > 100 µM (inactive).
